Laboratory results published in patent US20080004290A1, “Anti-Cancer Agents” (THE UNIVERSITY OF QUEENSLAND, priority 2003, published 2008).
Where two headings read alike, the source gives them in different places.

How the values were obtained:
Format in all cases: cell-based, human
[1] = system: NFF, neonatal foreskin fibroblasts; experiment: Cell survival assay (clonogenic survival, SRB), normal cells
In short: (§1)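 Cells (5×10^3/well, RPMI 1640 with 10% FCS) treated 24 h with compound at 0.01-10 μg/mL, then washed and grown 72 h drug-free at 37 °C, 5% CO2. Survival read by SRB staining after methylated-spirit fixation, absorbance 564 nm.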

[2] = system: MM96L melanoma cells; experiment: Cell survival assay (clonogenic survival, SRB)
In short: as §1

[3] = system: CI-80-13S ovarian cancer cells; experiment: Cell survival assay (SRB); conditions: Table 10, standard deviations in parentheses, read-out: Cell line IC50 (μM) C18013S
Protocol: (§2) Cell Lines and Culture Medium. All cell lines used in this study have been described previously (Parsons et al., 1986; Todaro et al., 1980; Glenn et al., 2004). All cell lines were cultured in 10% heat-inactivated foetal calf serum (CSL, Australia) in RPMI 1640 medium supplemented with 100 U/mL penicillin, 100 μg/mL streptomycin, and 3 mM HEPES at 5% CO2, 99% humidity at 37° C. Primary human fibroblasts were obtained from neonatal foreskins and cultured in the above medium. Routine mycoplasma tests were performed using Hoechst stain^i and were always negative.
(§3) Cell Survival Assay. Cells were plated into 96-well microtitre plates at 5×10^3 cells/well, and allowed to adhere overnight. Test compounds were added to culture medium at the indicated concentrations, and plates incubated in the above conditions for 24 hours. Following this incubation period, compounds and media were removed, and replaced with fresh culture medium. Cells were then grown for a further 72 hours before assay using sulforhodamine B (SRB; Sigma, St. Louis, Mo.) as previously described. Briefly, the culture medium was removed from the 96-well microtitre plates and the plates washed twice with phosphate buffered saline (PBS), before the cells were fixed with methylated spirits for 15 minutes. The plates were then rinsed with tap water and the fixed cells stained with 50 μL/well of SRB solution (0.4% sulforhodamine B (w/v) in 1% (v/v) acetic acid) over a period of 1 hour. The SRB solution was then removed from the wells and the plates rapidly washed two times with 1% (v/v) acetic acid. Protein bound dye was then solubilised with the addition of 100 μL of 10 mM unbuffered Tris, and incubated for 15 min at 25° C. Plates were then read at 564 nm on a VERSA max tunable microplate reader (Molecular Devices, Sunnyvale, Calif.).
(§4) For comparison their results are also shown for MM96L and NFF cell lines.

[4] = system: DO4 melanoma cells; experiment: Cell survival assay (SRB); conditions: Table 10, standard deviations in parentheses, read-out: Cell line IC50 (μM) DO4
Protocol: as §2, §3, §4

[5] = system: DU145 prostate cancer cells; experiment: Cell survival assay (SRB); conditions: Table 10, standard deviations in parentheses, read-out: Cell line IC50 (μM) DU145
Protocol: as §2, §3, §4

[6] = system: JAM ovarian cancer cells; experiment: Cell survival assay (SRB); conditions: Table 10, standard deviations in parentheses, read-out: Cell line IC50 (μM) JAM
Protocol: as §2, §3, §4

[7] = system: MCF-7 breast cancer cells; experiment: Cell survival assay (SRB); conditions: Table 10, standard deviations in parentheses, read-out: Cell line IC50 (μM) MCF7
Protocol: as §2, §3, §4

[8] = system: SkMel28 melanoma cells; experiment: Cell survival assay (SRB); conditions: Table 10, standard deviations in parentheses, read-out: Cell line IC50 (μM) SkMel
Protocol: as §2, §3, §4

[9] = system: p21^WAF1/Cip1 (CDKN1A); experiment: Induction of p21 expression (semi-quantitative RT-PCR) in MM96L cells; conditions: MM96L melanoma cells, 10 μg/ml, after 16 hrs treatment
Source text: Induction of p21 Expression. It has been postulated that histone acetylation is associated with activation of gene transcription. […] Possibly the best characterised gene to be induced following exposure to different HDAC inhibitors is that of the cyclin-dependent kinase inhibitor p21^WAF1/Cip1, which blocks cyclin-dependent kinase activity thereby causing cell-cycle arrest in G1. HDAC inhibitors are thought to act directly on the CDKN1A promoter rather than an upstream target. The HDAC inhibitor SAHA induces accumulation of acetylated histones in the chromatin associated with the CDKN1A gene, and this correlates with the observed increase in transcription. […]
Cell Treatment and Total RNA Isolation. […] RNA was analysed for sufficient quality by formamide agarose gel electrophoresis, and quantified by spectrophotometry.
p21 Expression. The semi-quantitative analysis of mRNA expression of p21^WAF1/Cip1 was carried out by RT-PCR. […] Products were analysed by agarose gel electrophoresis, and visualised on a UV light box. Product intensity was determined to increase linearly with number of cycles and amount of mRNA used, by densitometric analysis using ImageQuaNT 4.2 software (Molecular Dynamics, Sunnyvale, Calif.). Quantitation of p21^WAF1/Cip1 induction was also performed by densitometric analysis using ImageQuaNT 4.2 software following normalisation to GAPDH product intensity.

[10] = system: histone deacetylase; experiment: Histone hyperacetylation (histone H4, Triton-acetic acid-urea gel) in MM96L cells; conditions: (figure legends: 5 μg/mL, 8 hours)
Protocol: FIG. 1. Acetylation of Histones. […] Lane 1: untreated. Lane 2: compound of example 22 Lane 3: compound of example 40. Lane 4: TSA. Non-acetylated (A), mono-acetylated (B), di-acetylated (C), tri-acetylated (D) and tetra-acetylated (E) histone H4 are indicated.
FIG. 2. Acetylation of histones MM96L cells were treated with 5 μg/ml of various compound for 8 hr, before harvest and analysis of histone H4 acetylation by Triton-acetic acid-urea gel as previously described (Saito et al., 1991; Qiu et al., 1999). Lane 1: untreated: lane 2: Compound of example 73; lane 3: Compound of example 40; lane 4: TSA. Non-acetylated (A), mono-acetylated (B), di-acetylated (C), tri-acetylated (D) and tetra-acetylated (E) histone H4 are indicated.
Histone Hyperacetylation.

[11] = Homo sapiens, Fibroblast, 24 h, Table 6, 24 hours with compound, further growth, SRB, read-out: IC50 (μM) NFF
[12] = Homo sapiens, Fibroblast, Table 10, standard deviations in parentheses, read-out: Cell line IC50 (μM) NFF
[13] = Homo sapiens, MM96L, 24 h, Table 6, 24 hours with compound, further growth, SRB, read-out: IC50 (μM) MM96L
[14] = Homo sapiens, MM96L, Table 10, standard deviations in parentheses, read-out: Cell line IC50 (μM) MM96L
[15] = Table 6, IC50 (NFF)/IC50 (MM96L)
[16] = Homo sapiens, MM96L, most preferred compounds, exemplary examples, read-out: potency of IC50 against the MM96 melanoma cells
[17] = Table 5, 24 hours with compound, further growth, SRB, read-out: IC50 NFF
[18] = Table 10, standard deviations in parentheses, read-out: Cell line IC50 (μM) NFF
[19] = Table 5, 24 hours with compound, further growth, SRB, read-out: IC50 MM96L
[20] = Table 5, Selectivity Index = IC50 (NFF)/IC50 (MM96L)
[21] = Table 10, standard deviations in parentheses, read-out: Cell line IC50 (μM) MM96L

Structure (SMILES)	IC50 [1, 11] [µM]	IC50 [1, 12] [µM]	IC50 [2, 13] [µM]	IC50 [2, 14] [µM]	Selectivity [2, 15]	IC50 ([3]; Homo sapiens, C180-13S) [µM]	IC50 ([4]; Homo sapiens, DO4) [µM]	IC50 ([5]; Homo sapiens, DU-145) [µM]	IC50 ([6]; Homo sapiens) [µM]	IC50 ([7]; Homo sapiens, MCF7) [µM]	IC50 ([8]; Homo sapiens, SK-MEL-28) [µM]	IC50 [1, 17] [µM]	IC50 [1, 18] [µM]	IC50 [2, 21] [µM]	IC50 [3] [µM]	IC50 [4] [µM]	IC50 [5] [µM]	IC50 [6] [µM]	IC50 [7] [µM]	IC50 [8] [µM]	further results
CN(C)c1ccc(C(=O)N[C@@H](CSCCCC(=O)NO)C(=O)Nc2ccc(-c3ccccc3)cc2)cc1 [Example 61]	0.32 ± 0.05	0.32	0.17 ± 0.05	0.17	1.9	0.38	0.83	0.37	0.6	0.48	1.11	–	–	–	–	–	–	–	–	–	–
CN(C)c1ccc(C(=O)N[C@@H](CSCCCC(=O)NO)C(=O)NC2CCCc3ccccc32)cc1 (stereo partly shown) [Example 67]	2.2 ± 0.2	2.2	0.2 ± 0.1	0.2	11	1.24	2.73	1.06	1.47	0.96	2.59	–	–	–	–	–	–	–	–	–	IC50 [2, 16]: ≤ 0.5 µM; Induction of mRNA for p21^WAF1/Cip1 [9]: Induction of mRNA for p21^WAF1/Cip1 was seen
O=C(CCCSC[C@H](NC(=O)C(O)(c1ccccc1)c1ccccc1)C(=O)NCc1ccccc1)NO [Example 44]	–	–	–	–	–	–	–	–	–	–	–	9.3 ± 0.7	0.8	0.2	0.6	2.1	1.7	1.8	0.7	2.5	IC50 [2, 19]: 1.8 ± 0.2 µM; Selectivity [2, 20]: 5.2
CN(C)c1ccc(C(=O)N[C@@H](CSCCCC(=O)NO)C(=O)N[C@H]2c3ccccc3C[C@H]2O)cc1 [Example 70]	–	–	–	–	9.1	–	–	–	–	–	–	–	8.2	0.9	2.5	7.12	3.76	7.22	3.3	6.14	IC50 ([1]; Table 6, 24 hours with compound, further growth, SRB, read-out: IC50 (μM) NFF): 8.2 ± 0.8 µM; IC50 ([2]; Table 6, 24 hours with compound, further growth, SRB, read-out: IC50 (μM) MM96L): 0.9 ± 0.05 µM
O=C(CCCSC[C@H](NC(=O)c1cc2ccccc2[nH]1)C(=O)NCc1ccccc1)NO [Example 40]	–	–	–	–	–	–	–	–	–	–	–	0.8 ± 0.2	0.8	0.13	0.4	1.3	0.4	0.75	0.84	1.7	IC50 [2, 19]: 0.13 ± 0.09 µM; Selectivity [2, 20]: 6.2; acetylation state of histone H4 [10]: hyperacetylation of H4
CN(C)c1ccc(NC(=O)[C@H](CSCCCC(=O)NO)NC(=O)c2ccc(N(C)C)cc2)cc1 [Example 59]	0.6 ± 0.1	0.6	0.1 ± 0.1	0.1	6.0	0.39	1.05	0.33	0.43	0.39	1.09	–	–	–	–	–	–	–	–	–	IC50 [2, 16]: ≤ 0.5 µM
CN(C)c1ccc(C(=O)N[C@@H](CSCCCC(=O)NO)C(=O)NCc2ccccc2)cc1 [Example 22]	–	–	–	–	–	–	–	–	–	–	–	0.35 ± 0.07	0.35	0.14	0.7	2	0.61	1.24	0.59	3	IC50 [2, 19]: 0.14 ± 0.09 µM; Selectivity [2, 20]: 2.5; acetylation state of histone H4 [10]: hyperacetylation of H4
